Source: ChEMBL document CHEMBL4706752 (ACS Med Chem Lett, 2021)
Calls of active or inactive are those of the source. The rule behind the calls is not given here.

Experiments:
[1] = AUC in dog at 1 mg/kg, iv; assay type: ADME, organism-based, Canis lupus familiaris; set-up: dose 1 mg/kg; settings: in vivo
[2] = target: T1, Oxysterols receptor LXR-beta (Homo sapiens, UniProt P55055); assay: Inhibition of LXRbeta (unknown origin)
T1 sequence (P55055 whole entry): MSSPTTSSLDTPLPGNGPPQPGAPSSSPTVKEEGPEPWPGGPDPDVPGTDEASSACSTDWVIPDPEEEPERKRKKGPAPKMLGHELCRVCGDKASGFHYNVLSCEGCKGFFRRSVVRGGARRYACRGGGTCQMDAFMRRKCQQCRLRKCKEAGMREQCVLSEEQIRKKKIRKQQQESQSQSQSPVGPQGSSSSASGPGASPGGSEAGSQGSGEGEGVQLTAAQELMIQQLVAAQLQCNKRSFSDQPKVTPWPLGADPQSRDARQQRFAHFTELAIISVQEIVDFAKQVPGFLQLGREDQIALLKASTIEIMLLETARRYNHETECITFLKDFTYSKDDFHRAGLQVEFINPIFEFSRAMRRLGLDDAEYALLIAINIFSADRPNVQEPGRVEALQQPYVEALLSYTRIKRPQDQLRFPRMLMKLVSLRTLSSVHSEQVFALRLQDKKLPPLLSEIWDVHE

[3] = target: Cytochrome P450 3A4 (Homo sapiens, UniProt P08684); assay: Inhibition of CYP3A4 (unknown origin); assay type: ADME
Chain of Cytochrome P450 3A4 (P08684 whole entry): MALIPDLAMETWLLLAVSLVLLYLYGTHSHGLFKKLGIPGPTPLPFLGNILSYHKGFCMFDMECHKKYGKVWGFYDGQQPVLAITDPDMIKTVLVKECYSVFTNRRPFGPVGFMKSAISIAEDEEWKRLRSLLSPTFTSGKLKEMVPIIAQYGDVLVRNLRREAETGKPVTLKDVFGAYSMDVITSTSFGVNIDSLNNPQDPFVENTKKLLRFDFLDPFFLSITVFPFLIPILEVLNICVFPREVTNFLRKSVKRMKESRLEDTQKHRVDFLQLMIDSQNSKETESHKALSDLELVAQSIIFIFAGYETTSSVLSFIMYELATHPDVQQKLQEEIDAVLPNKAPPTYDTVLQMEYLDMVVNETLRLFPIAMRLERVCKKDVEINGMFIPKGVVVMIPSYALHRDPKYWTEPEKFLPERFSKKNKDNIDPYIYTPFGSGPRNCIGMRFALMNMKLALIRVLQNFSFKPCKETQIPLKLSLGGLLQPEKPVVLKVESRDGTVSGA

[4] = tested on: Mus musculus; assay: Suppression of ear thickness in C57BL/6 mouse model of IL-23 induced acanthosis model of psoriasis assessed as AUC of %change in ear thickness at 10 mg/kg, po BID for 10 days measured every other day; assay type: functional; settings: time 10 day
[5] = Decrease in IL-17a gene expression in C57BL/6 mouse model of IL-23 induced acanthosis model of psoriasis at 10 mg/kg, po BID for 10 days by RT-PCR analysis; assay type: functional; settings: C57BL/6, po, 240 h, time 10 day
[6] = target: T2, Cytochrome P450 2C8 (Homo sapiens, UniProt P10632); assay: Inhibition of CYP2C8 (unknown origin); assay type: ADME
T2 sequence (P10632 whole entry): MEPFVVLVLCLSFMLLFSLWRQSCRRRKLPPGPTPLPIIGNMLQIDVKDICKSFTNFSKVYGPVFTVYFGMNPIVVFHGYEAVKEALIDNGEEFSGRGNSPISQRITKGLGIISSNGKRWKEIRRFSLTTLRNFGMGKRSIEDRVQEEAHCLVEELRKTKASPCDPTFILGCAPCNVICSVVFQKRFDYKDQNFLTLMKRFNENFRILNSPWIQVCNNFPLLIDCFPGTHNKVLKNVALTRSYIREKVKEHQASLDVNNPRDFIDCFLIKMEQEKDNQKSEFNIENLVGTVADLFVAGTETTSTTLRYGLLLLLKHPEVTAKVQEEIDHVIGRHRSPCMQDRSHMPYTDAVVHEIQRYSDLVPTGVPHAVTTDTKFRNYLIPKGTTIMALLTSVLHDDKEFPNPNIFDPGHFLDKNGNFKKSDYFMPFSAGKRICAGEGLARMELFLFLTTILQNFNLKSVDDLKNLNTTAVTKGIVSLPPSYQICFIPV

[7] = Tmax in dog at 2 mg/kg, po; assay type: ADME, organism-based, Canis lupus familiaris; settings: in vivo
[8] = target: Cytochrome P450 2C19 (Homo sapiens, UniProt P33261); assay: Inhibition of CYP2C19 (unknown origin); assay type: ADME
Chain of Cytochrome P450 2C19 (P33261 whole entry): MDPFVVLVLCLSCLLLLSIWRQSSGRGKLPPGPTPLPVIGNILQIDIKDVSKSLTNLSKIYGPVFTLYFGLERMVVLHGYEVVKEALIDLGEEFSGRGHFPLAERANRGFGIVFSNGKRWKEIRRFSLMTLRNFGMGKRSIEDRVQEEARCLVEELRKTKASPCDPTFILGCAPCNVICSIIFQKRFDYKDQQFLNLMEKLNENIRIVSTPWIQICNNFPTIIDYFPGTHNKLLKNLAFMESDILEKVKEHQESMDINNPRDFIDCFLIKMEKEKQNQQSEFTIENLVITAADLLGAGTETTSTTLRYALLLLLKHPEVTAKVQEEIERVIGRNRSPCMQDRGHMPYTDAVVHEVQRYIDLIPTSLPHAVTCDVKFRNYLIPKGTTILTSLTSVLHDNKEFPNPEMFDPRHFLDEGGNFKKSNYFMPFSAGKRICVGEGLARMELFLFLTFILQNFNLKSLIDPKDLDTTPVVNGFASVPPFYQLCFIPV

[9] = tested on: Mus musculus; assay: Antiinflammatory activity in DBA/1J mouse model of collagen-induced arthritis assessed as reduction in clinical score at 20 mg/kg, po dosed twice daily for 21 days measured on day 51; assay type: functional; settings: 504 h, time 21 day
[10] = Apparent permeability across apical to basolateral membrane in human Caco2 cells; assay type: ADME, cell-based; settings: Caco-2
[11] = tested on: Mus musculus; assay: Suppression of ear thickness in C57BL/6 mouse model of IL-23 induced acanthosis model of psoriasis at 5 to 20 mg/kg, po BID for 10 days measured every other day; assay type: functional, organism-based; settings: dose 5-20 mg/kg, time 10.0 day
[12] = Decrease in LCN2 gene expression in C57BL/6 mouse model of IL-23 induced acanthosis model of psoriasis at 20 mg/kg, po BID for 10 days by RT-PCR analysis; assay type: functional; settings: C57BL/6, po, 240 h, time 10 day
[13] = tested on: Mus musculus; assay: Antiinflammatory activity in DBA/1J mouse model of collagen-induced arthritis assessed as reduction in histological score at 10 mg/kg, po dosed twice daily for 21 days; assay type: functional; settings: 504 h, time 21 day
[14] = AUC in Sprague-Dawley rat at 4 mg/kg, po; assay type: ADME, organism-based; set-up: dose 4 mg/kg; settings: in vivo
[15] = AUC in Sprague-Dawley rat at 2 mg/kg, iv; assay type: ADME, organism-based; set-up: dose 2 mg/kg; settings: in vivo
[16] = Clearance in cynomolgus monkey at 1 mg/kg, iv; assay type: ADME, organism-based, Macaca fascicularis; settings: in vivo
[17] = Decrease in LCN2 gene expression in C57BL/6 mouse model of IL-23 induced acanthosis model of psoriasis at 10 mg/kg, po BID for 10 days by RT-PCR analysis; assay type: functional; settings: C57BL/6, po, 240 h, time 10 day
[18] = tested on: Mus musculus; assay: Antiinflammatory activity in DBA/1J mouse model of collagen-induced arthritis assessed as reduction in clinical score at 10 mg/kg, po dosed twice daily for 21 days measured on day 51; assay type: functional; settings: 504 h, time 21 day
[19] = target: T3, Oxysterols receptor LXR-alpha (Homo sapiens, UniProt Q13133); assay: Inhibition of LXRalpha (unknown origin)
T3 sequence (Q13133 whole entry): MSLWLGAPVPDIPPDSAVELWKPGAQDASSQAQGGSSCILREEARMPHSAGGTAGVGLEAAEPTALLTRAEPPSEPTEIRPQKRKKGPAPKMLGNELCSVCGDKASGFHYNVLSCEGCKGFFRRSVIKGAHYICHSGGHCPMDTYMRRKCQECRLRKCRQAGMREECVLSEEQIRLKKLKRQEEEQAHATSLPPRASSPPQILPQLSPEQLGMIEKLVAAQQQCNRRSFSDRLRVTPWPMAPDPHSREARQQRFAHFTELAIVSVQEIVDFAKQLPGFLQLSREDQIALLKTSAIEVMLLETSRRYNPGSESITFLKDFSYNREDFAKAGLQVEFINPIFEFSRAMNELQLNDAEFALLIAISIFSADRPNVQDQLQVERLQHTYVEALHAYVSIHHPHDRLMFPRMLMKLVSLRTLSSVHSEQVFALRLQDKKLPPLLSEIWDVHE

[20] = Oral bioavailability in dog at 2 mg/kg; assay type: ADME, organism-based, Canis lupus familiaris; settings: in vivo
[21] = Unbound volume of distribution at steady state in dog at 1 mg/kg, iv; assay type: ADME, organism-based, Canis lupus familiaris; settings: in vivo
[22] = tested on: Mus musculus; assay: Antiinflammatory activity in DBA/1J mouse model of collagen-induced arthritis assessed as reduction in plasma IL-6 level at 20 mg/kg, po dosed twice daily for 21 days (reference value: 80 +/- 6 pg/ml); assay type: functional; settings: time 21 day
[23] = Cmax in Balb/c mouse at 4 mg/kg, po; assay type: ADME, organism-based; set-up: route oral, dose 4 mg/kg; settings: in vivo
[24] = Metabolic stability in mouse liver microsomes assessed as compound remaining after 10 mins; assay type: ADME, Microsome; settings: read-out: Stabilty
[25] = tested on: Mus musculus; assay: Antiinflammatory activity in DBA/1J mouse model of collagen-induced arthritis assessed as reduction in Anti-CII Ab level at 5 to 20 mg/kg, po dosed twice daily for 21 days; assay type: functional, organism-based; settings: dose 5-20 mg/kg, time 21.0 day
[26] = AUC in cynomolgus monkey at 2 mg/kg, po; assay type: ADME, organism-based, Macaca fascicularis; set-up: dose 2 mg/kg; settings: in vivo
[27] = AUC in Balb/c mouse at 4 mg/kg, po; assay type: ADME, organism-based; set-up: dose 4 mg/kg; settings: in vivo

Compound: C[C@@](O)(CS(C)(=O)=O)C(=O)N[C@@H]1CC[C@@]2(S(=O)(=O)c3ccc(F)cc3)c3ccc(C(F)(C(F)(F)F)C(F)(F)F)nc3CC[C@@H]12
- AUC [1]: 114 µM·h
- EC50 [2]: > 10 µM
- IC50 [3]: > 20 µM
- Activity [4]: 66.5%
- inhibition in vivo at 10 mg/kg [5]: 73.8%
- IC50 [6]: 7.6 µM
- Tmax [7]: 7 h
- IC50 [8]: 19 µM
- inhibition in vivo at 20 mg/kg [9]: 78%
- Papp A→B [10]: 11 ×10⁻⁶ cm/s
- Activity [11]: Dose-dependent effect
- inhibition in vivo at 20 mg/kg [12]: 82.9%
- inhibition in vivo at 10 mg/kg [13]: 60%
- AUC [14]: 44.9 µM·h
- AUC [15]: 26.3 µM·h
- clearance [16]: 2.8 mL/min/kg
- inhibition in vivo at 10 mg/kg [17]: 85.3%
- inhibition in vivo at 10 mg/kg [18]: 64%
- EC50 [19]: > 10 µM
- bioavailability [20]: 72%
- fVdss [21]: 1.3 L/kg
- Activity [22]: 19 pg/mL
- Cmax [23]: 2800 nM
- remaining at 10 min [24]: 98%
- Activity [25]: Active
- AUC [26]: 13.2 µM·h
- AUC [27]: 45.9 µM·h
